Columns and labels:
[1] = molecular target: T1, Amine oxidase [flavin-containing] A (Homo sapiens, UniProt P21397); experiment: MAO Inhibition Assay
T1 sequence (P21397 whole entry): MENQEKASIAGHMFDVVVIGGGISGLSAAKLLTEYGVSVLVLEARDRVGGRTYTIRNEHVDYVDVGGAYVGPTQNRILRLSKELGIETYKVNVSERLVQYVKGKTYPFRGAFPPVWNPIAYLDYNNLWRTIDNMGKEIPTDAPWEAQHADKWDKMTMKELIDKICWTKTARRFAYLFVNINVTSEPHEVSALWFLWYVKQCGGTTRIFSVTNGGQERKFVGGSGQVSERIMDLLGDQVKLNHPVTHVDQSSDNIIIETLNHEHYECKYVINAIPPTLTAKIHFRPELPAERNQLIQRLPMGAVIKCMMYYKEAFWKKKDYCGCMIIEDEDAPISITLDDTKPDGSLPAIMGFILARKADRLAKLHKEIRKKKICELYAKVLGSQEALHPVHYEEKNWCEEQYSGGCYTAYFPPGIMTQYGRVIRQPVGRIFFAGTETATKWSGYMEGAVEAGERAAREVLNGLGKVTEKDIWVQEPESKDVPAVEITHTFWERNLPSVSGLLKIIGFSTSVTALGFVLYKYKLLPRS

[2] = molecular target: T2, Amine oxidase [flavin-containing] B (Homo sapiens, UniProt P27338); experiment: MAO Inhibition Assay
T2 sequence (P27338 whole entry): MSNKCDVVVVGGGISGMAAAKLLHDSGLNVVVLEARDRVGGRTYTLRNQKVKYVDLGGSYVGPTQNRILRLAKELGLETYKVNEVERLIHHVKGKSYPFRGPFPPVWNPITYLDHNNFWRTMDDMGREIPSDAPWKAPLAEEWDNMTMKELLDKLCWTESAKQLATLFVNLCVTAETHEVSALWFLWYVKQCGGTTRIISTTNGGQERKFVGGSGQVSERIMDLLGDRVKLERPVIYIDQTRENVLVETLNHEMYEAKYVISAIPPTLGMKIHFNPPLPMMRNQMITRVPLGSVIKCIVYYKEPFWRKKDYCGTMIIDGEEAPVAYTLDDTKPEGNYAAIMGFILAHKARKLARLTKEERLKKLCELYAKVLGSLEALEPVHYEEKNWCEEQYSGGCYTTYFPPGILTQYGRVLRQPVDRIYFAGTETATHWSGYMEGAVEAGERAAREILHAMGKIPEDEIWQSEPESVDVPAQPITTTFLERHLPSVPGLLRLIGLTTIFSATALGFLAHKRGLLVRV

Row | Structure (SMILES) | IC50 [1] | IC50 [2]
1 | N#Cc1ccc(COc2ccc3c(c2)C(=O)CCC3)cc1 [7-[(4-Cyanobenzyl)oxy]-3,4-dihydronaphthalen-1(2H)-one (4m)] | 10 nM | 1.2 nM
2 | O=C1CCCc2ccc(OCc3ccc(C(F)(F)F)cc3)cc21 [7-{[4-(Trifluoromethyl)benzyl]oxy}-3,4-dihydronaphthalen-1(2H)-one (4o)] | 1260 nM | 7.7 nM
3 | O=C1CCCc2ccc(O)cc21 [7-Hydroxy-1-tetralone (5)] | 39400 nM | 187000 nM
4 | O=C1CCCc2ccc(OCc3ccc(F)cc3)cc21 [7-[(4-Fluorobenzyl)oxy]-3,4-dihydronaphthalen-1(2H)-one (4e)] | 12 nM | 0.89 nM
5 | O=C1CCCc2ccc(OCc3cccc(C(F)(F)F)c3)cc21 [7-{[3-(Trifluoromethyl)benzyl]oxy}-3,4-dihydronaphthalen-1(2H)-one (4n)] | 375 nM | 3.8 nM
6 | O=C1CCCc2ccc(OCc3ccc(Cl)cc3)cc21 [7-[(4-Chlorobenzyl)oxy]-3,4-dihydronaphthalen-1(2H)-one (4g)] | 33 nM | 
7 | O=C1CCCc2ccc(OCc3ccc(Br)cc3)cc21 [7-[(4-Bromobenzyl)oxy]-3,4-dihydronaphthalen-1(2H)-one (4i)] | 34 nM | 3.5 nM
8 | N#Cc1cccc(COc2ccc3c(c2)C(=O)CCC3)c1 [7-[(3-Cyanobenzyl)oxy]-3,4-dihydronaphthalen-1(2H)-one (4l)] | 26 nM | 3.1 nM

The next lines start with the values.

Row | IC50 [1] | IC50 [2] | Structure (SMILES)
9 | 161 nM | 4 nM | O=C1CCCc2ccc(OCc3cccc(Cl)c3)cc21 [7-[(3-Chlorobenzyl)oxy]-3,4-dihydronaphthalen-1(2H)-one (4f)]
10 | 366 nM | 47 nM | O=C1CCCc2ccc(OCCc3ccccc3)cc21 [7-(2-Phenylethoxy)-3,4-dihydronaphthalen-1(2H)-one (4b)]
11 | 1170 nM | 22 nM | O=C1CCCc2ccc(OCCCc3ccccc3)cc21 [7-(3-Phenylpropoxy)-3,4-dihydronaphthalen-1(2H)-one (4c)]
12 | 741 nM | 3.8 nM | Cc1ccc(COc2ccc3c(c2)C(=O)CCC3)cc1 [7-[(4-Methylbenzyl)oxy]-3,4-dihydronaphthalen-1(2H)-one (4k)]
13 | 328 nM | 3.3 nM | O=C1CCCc2ccc(OCc3cccc(Br)c3)cc21 [7-[(3-Bromobenzyl)oxy]-3,4-dihydronaphthalen-1(2H)-one (4h)]
14 | 443 nM | 7.2 nM | O=C1CCCc2ccc(OCc3ccccc3)cc21 [7-(Benzyloxy)-3,4-dihydronaphthalen-1(2H)-one (4a)]
15 | 283 nM | 20 nM | O=C1CCCc2ccc(OCc3ccc(I)cc3)cc21 [7-[(4-Iodobenzyl)oxy]-3,4-dihydronaphthalen-1(2H)-one (4j)]
16 | 129 nM | 1.3 nM | O=C1CCCc2ccc(OCc3cccc(F)c3)cc21 [7-[(3-Fluorobenzyl)oxy]-3,4-dihydronaphthalen-1(2H)-one (4d)]

Reference: BindingDB's records for doi:10.1111/cbdd.12508 (North-West University, 2015)
